In US20230348376A1 (TEIJIN PHARMA LIMITED, priority 2020, published 2023):

Biological target: T1, human VDR (Homo sapiens, UniProt P11473)
T1 sequence (P11473 1-427): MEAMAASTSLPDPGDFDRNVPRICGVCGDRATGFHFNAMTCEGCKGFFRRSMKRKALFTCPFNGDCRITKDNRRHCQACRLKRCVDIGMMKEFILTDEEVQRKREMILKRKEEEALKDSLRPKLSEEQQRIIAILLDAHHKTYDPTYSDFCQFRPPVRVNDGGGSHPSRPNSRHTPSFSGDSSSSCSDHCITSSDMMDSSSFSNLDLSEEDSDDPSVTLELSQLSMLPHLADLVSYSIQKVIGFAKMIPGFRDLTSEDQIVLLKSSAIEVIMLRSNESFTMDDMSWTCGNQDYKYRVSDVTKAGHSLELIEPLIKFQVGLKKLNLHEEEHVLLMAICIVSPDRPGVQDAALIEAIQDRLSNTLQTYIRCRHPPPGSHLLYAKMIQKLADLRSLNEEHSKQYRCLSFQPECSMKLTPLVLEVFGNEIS
T1 sequence (P19793 1-462 partner): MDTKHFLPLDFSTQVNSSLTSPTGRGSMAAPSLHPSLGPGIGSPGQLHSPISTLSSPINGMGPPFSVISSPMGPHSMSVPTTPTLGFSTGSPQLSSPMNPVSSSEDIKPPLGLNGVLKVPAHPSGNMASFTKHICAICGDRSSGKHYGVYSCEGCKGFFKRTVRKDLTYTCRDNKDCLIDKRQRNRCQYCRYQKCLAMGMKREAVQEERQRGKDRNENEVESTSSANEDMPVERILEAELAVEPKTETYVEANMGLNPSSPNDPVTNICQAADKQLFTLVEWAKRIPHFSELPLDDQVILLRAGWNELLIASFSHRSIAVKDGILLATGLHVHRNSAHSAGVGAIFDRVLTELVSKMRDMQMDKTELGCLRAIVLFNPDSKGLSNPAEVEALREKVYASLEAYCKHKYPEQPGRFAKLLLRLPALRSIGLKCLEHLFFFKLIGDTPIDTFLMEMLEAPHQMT
Experiment: Evaluation of VDR transcription activity in human osteoblasts (HOS cells), luciferase reporter
Conditions: Activity (EC50, VDR transcription activity), HOS cells transfected with human VDR, human RXRα and DR3 luciferase reporter; 21 hours

| EC50 | SMILES |
| --- | --- |
| 10 to 100 nM | C=C1/C(=C\C=C2/CCC[C@]3(C)[C@@H]([C@H](C)CCN4CCOC[C@H]4C)CC[C@@H]23)C[C@@H](O)CC1O (stereo in doubt) [Compound D046, (1R,3R,Z)-5-(2-((1R,3aS,7aR,E)-7a-methyl-1-((R)-4-((R)-3-methylmorpholino)butan-2-yl)octahydro-4H-inden-4-ylidene)ethylidene)-4-methylenecyclohexane-1,3-diol] |
| 1 to 10 nM | C=C1[C@H](O)CC(=C/C=C2\CCC[C@]3(C)[C@@H]([C@H](C)CN4CCO[C@@H](C)C4)CC[C@@H]23)C[C@H]1O [Compound D010, (1R,3R)-5-(2-((1R,3aS,7aR,E)-7a-methyl-1-((S)-1-((S)-2-methylmorpholino)propan-2-yl)-octahydro-4H-inden-4-ylidene)ethylidene)-2-methylene-cyclohexane-1,3-diol] |
| 10 to 100 nM | C=C1/C(=C\C=C2/CCC[C@]3(C)[C@@H]([C@H](C)CCN4CCO[C@H](C(F)F)C4)CC[C@@H]23)C[C@@H](O)C[C@@H]1O [Compound D035, (1R,3S,Z)-5-(2-((1R,3aS,7aR,E)-1-((R)-4-((S)-2-(difluoromethyl)morpholino)butan-2-yl)-7a-methyloctahydro-4H-inden-4-ylidene)ethylidene)-4-methyloctahydro-1,3-diol] |
| < 1 nM | C=C1/C(=C\C=C2/CCC[C@]3(C)[C@@H]([C@H](C)CN4CCCC(O)(C(F)(F)F)C4)CC[C@@H]23)C[C@@H](O)[C@H](C)[C@@H]1O (single isomer, unassigned) [Compound C031a] |
| 1 to 10 nM | C=C1/C(=C\C=C2/CCC[C@]3(C)[C@@H]([C@@H](C)CN4CCCC(O)(C(F)(F)F)C4)CC[C@@H]23)C[C@@H](O)C[C@@H]1O (single isomer, unassigned) [Compound C033b] |
| 10 to 100 nM | C[C@H](CCN1CCO[C@H](C(F)F)C1)[C@H]1CC[C@H]2/C(=C/C=C3C[C@@H](O)C[C@H](O)C3)CCC[C@]12C [Compound D034, (1R,3R)-5-(2-((1R,3aS,7aR,E)-1-((R)-4-((S)-2-(difluoromethyl)morpholino)butan-2-yl)-7a-methyloctahydro-4H-inden-4-ylidene)ethylidene)cyclohexane-1,3-diol] |
| 10 to 100 nM | C=C1/C(=C\C=C2/CCC[C@]3(C)[C@@H]([C@H](C)CN4CCCC(C)(O)C4)CC[C@@H]23)C[C@@H](O)C[C@@H]1O (single isomer, unassigned) [Compound C037b] |
| 1 to 10 nM | C=C1[C@H](O)CC(=C/C=C2\CCC[C@]3(C)[C@@H]([C@H](C)CCN4C[C@@H](C)O[C@@H](C)C4)CC[C@@H]23)C[C@H]1O [Compound D028, (1R,3R)-5-(2-((1R,3aS,7aR,E)-1-((R)-4-((2S,6R)-2,6-dimethylmorpholino)butan-2-yl)-7a-methyloctahydro-4H-inden-4-ylidene)ethylidene)-2-methylenecyclohexane-1,3-diol] |
| 1 to 10 nM | C=C1/C(=C\C=C2/CCC[C@]3(C)[C@@H]([C@@H](C)CN4CCC(O)(C(F)F)CC4)CC[C@@H]23)C[C@@H](O)C[C@@H]1O [Compound C024, (1R,3S,Z)-5-(2-((1R,3aS,7aR,E)-1-((R)-1-(4-(difluoromethyl)-4-hydroxypiperidin-1-yl)propan-2-yl)-7a-methyloctahydro-4H-inden-4-ylidene)ethylidene)-4-methylenecyclohexane-1,3-diol] |
| 10 to 100 nM | C=C1[C@H](O)CC(=C/C=C2\CCC[C@]3(C)[C@@H]([C@H](C)CN4CCC[C@@](C)(O)C4)CC[C@@H]23)C[C@H]1O [Compound C040, (1R,3R)-5-(2-((1R,3aS,7aR,E)-1-((S)-1-((R)-3-hydroxy-3-methylpiperidin-1-yl)propan-2-yl)-7a-methyloctahydro-4H-inden-4-ylidene)ethylidene)-2-methylenecyclohexane-1,3-diol] |

Continued, molecule first:

| SMILES | EC50 |
| --- | --- |
| C=C1/C(=C\C=C2/CCC[C@]3(C)[C@@H]([C@H](C)CN4CCC(O)(C(F)(F)F)C4)CC[C@@H]23)C[C@@H](O)C[C@@H]1O (single isomer, unassigned) [Compound B044a] | < 1 nM |
| C=C1[C@H](O)CC(=C/C=C2\CCC[C@]3(C)[C@@H]([C@H](C)CN4CC[C@H](C(C)(F)F)C4)CC[C@@H]23)C[C@H]1O [Compound B031, (1R,3R)-5-(2-((1R,3aS,7aR,E)-1-((S)-1-((S)-3-(1,1-difluoroethyl)pyrrolidin-1-yl)propan-2-yl)-7a-methyloctahydro-4H-inden-4-ylidene)ethylidene)-2methylenecyclohexane-1,3-diol] | 1 to 10 nM |
| C=C1C(O)CC(=C/C=C2\CCC[C@]3(C)[C@@H]([C@H](C)CN4CC[C@@](C)(O)C4)CC[C@@H]23)C[C@H]1O (stereo in doubt) [Compound B076, (1R,3S)-5-(2-((1R,3aS,7aR,E)-1-((S)-1-((R)-3-hydroxy-3-methylpyrrolidin-1-yl)propan-2-yl)-7a-methyloctahydro-4H-inden-4-ylidene)ethylidene)-2-methylenecyclohexane-1,3-diol] | 10 to 100 nM |
| C=C1[C@H](O)CC(=C/C=C2\CCC[C@]3(C)[C@@H]([C@H](C)CCN4CC[C@H](CC(F)F)C4)CC[C@@H]23)C[C@H]1O [Compound B090, (1R,3R)-5-(2-((1R,3aS,7aR,E)-1-((R)-4-((R)-3-(2,2-difluoroethyl)pyrrolidin-1-yl)butan-2-yl)-7a-methyloctahydro-4H-inden-4-ylidene)ethylidene)-2-methylenecyclohexane-1,3-diol] | 1 to 10 nM |
| C=C1[C@H](O)CC(=C/C=C2\CCC[C@]3(C)[C@@H]([C@H](C)CN4CC[C@@H](C(C)(F)F)C4)CC[C@@H]23)C[C@H]1O [Compound B035, (1R,3R)-5-(2-((1R,3aS,7aR,E)-1-((S)-1-((R)-3-(1,1-difluoroethyl)pyrrolidin-1-yl)propan-2-yl)-7a-methyloctahydro-4H-inden-4-ylidene)ethylidene)-2-methylenecyclohexane-1,3-diol] | 1 to 10 nM |
| C[C@H](CCN1CC[C@H](C(F)F)C1)[C@H]1CC[C@H]2/C(=C/C=C3C[C@@H](O)C[C@H](O)C3)CCC[C@]12C [Compound B080, (1R,3R)-5-(2-((1R,3aS,7aR,E)-1-((R)-4-((S)-3-(difluoromethyl)pyrrolidin-1-yl)butan-2-yl)-7a-methyloctahydro-4H-inden-4-ylidene)ethylidene)cyclohexane-1,3-diol] | 10 to 100 nM |
| C[C@H](CCN1CC[C@@H](OC(F)F)C1)[C@H]1CC[C@H]2/C(=C/C=C3C[C@@H](O)C[C@H](O)C3)CCC[C@]12C [Compound B087, (1R,3R)-5-(2-((1R,3aS,7aR,E)-1-((R)-4-((R)-3-(difluoromethoxy)pyrrolidin-1-yl)butan-2-yl)-7a-methyloctahydro-4H-inden-4-ylidene)ethylidene)cyclohexane-1,3-diol] | 100 to 1000 nM |
| C=C1/C(=C\C=C2/CCC[C@]3(C)[C@@H]([C@@H](C)CN4CC[C@@H](C(F)F)C4)CC[C@@H]23)C[C@@H](O)C[C@@H]1O [Compound B096, (1R,3S,Z)-5-(2-((1R,3aS,7aR,E)-1-((R)-1-((R)-3-(difluoromethyl)pyrrolidin-1-yl)propan-2-yl)-7a-methyloctahydro-4H-inden-4-ylidene)ethylidene)-4-methylenecyclohexane-1,3-diol] | 1 to 10 nM |
| C=C1[C@H](O)CC(=C/C=C2\CCC[C@]3(C)[C@@H]([C@H](C)CN4CC(OCC(F)F)C4)CC[C@@H]23)C[C@H]1O [Compound A016, (1R,3R)-5-(2-((1R,3aS,7aR,E)-1-((S)-1-(3-(2,2-difluoroethoxy)azetidin-1-yl)propan-2-yl)-7a-methyloctahydro-4H-inden-4-ylidene)ethylidene)-2-methylenecyclohexane-1,3-diol] | 10 to 100 nM |
| C=C1[C@H](O)CC(=C/C=C2\CCC[C@]3(C)[C@@H]([C@H](C)CCN4CC[C@@H](CCC(F)F)C4)CC[C@@H]23)C[C@H]1O [Compound B094, (1R,3R)-5-(2-((1R,3aS,7aR,E)-1-((R)-4-((R)-3-(3,3-difluoropropyl)pyrrolidin-1-yl)butan-2-yl)-7a-methyloctahydro-4H-inden-4-ylidene)ethylidene)-2-methylenecyclohexane-1,3-diol] | 10 to 100 nM |
| C=C1[C@H](O)CC(=C/C=C2\CCC[C@]3(C)[C@@H]([C@H](C)CCN4CC[C@H](C(C)(F)F)C4)CC[C@@H]23)C[C@H]1O [Compound B091, (1R,3R)-5-(2-((1R,3aS,7aR,E)-1-((R)-4-((S)-3-(1,1-difluoroethyl)pyrrolidin-1-yl)butan-2-yl)-7a-methyloctahydro-4H-inden-4-ylidene)ethylidene)-2-methylenecyclohexane-1,3-diol] | 1 to 10 nM |
